Measurements as given in article PMC12910498 (ACS pharmacology & translational science, 2026).
Where two headings read alike, the source gives them in different places.

Legend:
human D2R long isoform = human D2R long isoform (Homo sapiens, UniProt P14416); test: DiscoverX PathHunter β-arrestin recruitment assay, D2R; details: for Emax: read-out: D2R Emax (%)
human D3R = human D3R (Homo sapiens, UniProt P35462); test: DiscoverX PathHunter β-arrestin recruitment assay, D3R; details: for D3R Ant. (%): antagonist mode, EC80 dopamine (1 μM), normalized to spiperone; for Emax: read-out: D3R Emax (%)
[1] = Phase I metabolic stability in human liver microsomes (with NADPH); assay type: in vitro ADME; details: pH 7.4, presence of NADPH, mean ± SD, n = 3
Experimental: (§1) We evaluated the Phase I metabolic stability of compounds 2−7 and 14−19 using rat and human liver microsomes, as previously described.[45]
(§2) Phase I metabolic stability assays were conducted using rat and human liver microsomes as previously described[45],[70] with minor modifications. In brief, the reactions were carried out with 100 mM potassium phosphate buffer, pH 7.4, in the presence of NADPH regenerating system (1.3 mM NADPH, 3.3 mM glucose 6-phosphate, 3.3 mM MgCl2, 0.4 U/mL glucose-6-phosphate dehydrogenase, 50 μM sodium citrate). Negative controls without cofactors were assessed to determine the non-CYP-mediated metabolism. Compound disappearance was monitored over time using a liquid chromatography and tandem mass spectrometry (LC/MS) method. All reactions were performed in triplicate.
(§3) Chromatographic analysis was performed on a Dionex ultra high-performance LC system coupled with Q Exactive Focus orbitrap mass spectrometer (Thermo Fisher Scientific Inc., Waltham MA). Separation was achieved using Agilent Eclipse Plus column (100 × 2.1 mm^2 i.d.; maintained at 35 °C) packed with a 1.8 μm C18 stationary phase. […] The total run time for each analyte was 6.5 min. Pumps were operated at a flow rate of 0.3 mL/min. The mass spectrometer controlled by Xcalibur software 4.0.27.13 (Thermo Scientific) was operated with a HESI ion source in positive ionization mode. Compounds were identified in the full-scan mode (from m/z 50 to 750) by comparing t = 0 samples with t = 30 min and t = 60 min samples.

[2] = Phase I metabolic stability in rat liver microsomes (with NADPH); assay type: in vitro ADME; details: pH 7.4, presence of NADPH, mean ± SD, n = 3
Experimental: as §1, §2, §3

human D4R [3] = molecular target: T1, human D4R (Homo sapiens, UniProt P21917); test: DiscoverX PathHunter β-arrestin recruitment assay, D4R; details: for D4R average activity at the highest tested dose: at 100 μM (Emax ND); for D4R Ant. (%): antagonist mode, EC80 dopamine (1 μM), normalized to spiperone
T1 sequence (P21917 1-419): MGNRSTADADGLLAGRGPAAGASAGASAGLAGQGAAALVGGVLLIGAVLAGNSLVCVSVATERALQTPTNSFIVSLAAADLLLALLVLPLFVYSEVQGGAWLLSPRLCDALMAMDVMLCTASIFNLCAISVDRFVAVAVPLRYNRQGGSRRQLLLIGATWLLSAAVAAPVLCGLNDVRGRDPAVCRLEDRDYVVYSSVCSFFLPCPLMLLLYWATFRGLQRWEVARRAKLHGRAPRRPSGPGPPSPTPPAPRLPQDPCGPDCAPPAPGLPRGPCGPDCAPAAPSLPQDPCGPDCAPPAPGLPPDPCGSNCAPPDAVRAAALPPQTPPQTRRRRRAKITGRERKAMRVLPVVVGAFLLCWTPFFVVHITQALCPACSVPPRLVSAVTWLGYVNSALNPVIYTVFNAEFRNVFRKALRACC

human D4R [4] = molecular target: T1, human D4R; details: for D4R Ant. (%): cAMP, antagonist mode, 10 μM forskolin and 10 nM dopamine, normalized to spiperone; for Emax: read-out: D4R Emax (%)
D5 = molecular target: T2, D5 (Homo sapiens, UniProt P21918); test: PDSP primary screen, D5; assay type: binding; details: 10 µM compound
T2 construct: Psychoactive Drug Screening Program (PDSP)
Source text: (§4) Receptor Primary Secondary Primary Secondary Primary Secondary Primary Secondary screen assay screen assay screen assay screen assay […]
(§5) inhibition in primary assessment.

[5] = Pharmacokinetics study in rats (plasma and brain); assay type: in vivo, Sprague−Dawley rats; details: rat, 5 mg/kg IP; for Kp / half-life / Tmax / AUC / Cmax: Sprague-Dawley; for Kp: brain and plasma, AUC brain/plasma, read-out: brain: Plasma ratio; for Kp / half-life: ip; for peak in vivo brain concentrations expected: from brain Cmax
Experimental: Given their adequate in vitro stability profiles, we next evaluated the in vivo pharmacokinetic profiles of 14, 15, 17, and 18 in rats. Sprague−Dawley rats were dosed with 5 mg/kg (14, 15, 17) or 10 mg/kg (18), i.p., and plasma and brain levels of each drug were measured 0−6 h postdose.
All animal experiments were performed following the protocols evaluated and approved by the Animal Care and Use Committee at Johns Hopkins University (Ethics Approval Number: RA24M403). Pharmacokinetic studies in Sprague−Dawley (SD) rats were conducted according to protocols approved. SD rats obtained from Harlan were maintained on a 12 h light−dark cycle with ad libitum access to food and water. Test compound was administered via i.p. injection at a dose of 10 mg/kg (100% saline vehicle, 10 mL/kg volume). The rats were sacrificed at specified time points (0.25, 0.5 h, 1, 2, 4, and 6 h) post drug administration. For the collection of plasma and brain tissue, animals were euthanized with CO2, and blood samples were collected in heparinized microtubes by cardiac puncture. Brains were dissected and immediately flash-frozen (−80 °C). Blood samples were spun at 2000g for 15 min, and plasma was removed and stored at −80 °C until analysis (as described below).
Quantitation of triazole analogs 14, 15, 17, and 18 was performed using liquid chromatography with tandem mass spectrometry (LC/MS-MS) methods. Briefly, calibration standards were prepared using respective tissue (naïve plasma and brain) with additions of the test compounds. For quantifying the test compounds in the pharmacokinetic samples, plasma samples (20 μL) were processed using a single liquid extraction method by addition of 100 μL of acetonitrile containing internal standard (losartan: 0.5 μM), followed by vortex-mixing for 30 s and then centrifugation at 10,000g for 10 min at 4 °C. Brain tissues were diluted 1:5 w/v with acetonitrile containing losartan (0.5 μm) and homogenized, followed by vortex-mixing and centrifugation at 10,000g for 10 min at 4 °C. A 50 μL aliquot of the supernatant was diluted with 50 μL of water and transferred to 250 μL polypropylene autosampler vials sealed with Teflon caps. Two μL of the sample was injected into the LC/MS/MS system for analysis. Chromatographic analysis was performed using an Accela ultra high-performance system consisting of an analytical pump and an autosampler coupled with a TSQ Vantage mass spectrometer. […] The mobile phase consisted of 0.1% formic acid in acetonitrile and 0.1% formic acid in water with gradient elution, starting with 10% organic phase (from 0 to 1 min) linearly increasing to 95% (from 1 to 2 min), and re-equilibrating to 10% by 3 min. The total run time for each analyte was 3.5 min. Pumps were operated at a flow rate of 0.4 mL/min. […] Plasma concentrations (nmol/mL) as well as brain tissue concentrations (nmol/g) were determined and plots of mean plasma concentration versus time were constructed. Noncompartmental analysis modules in Phoenix WinNonlin version 7.0 (Certara USA, Inc., Princeton, NJ) were used to quantify exposures (AUC0−t) and half-life (t1/2).

D1 = molecular target: T3, D1 (Homo sapiens, UniProt P21728); test: PDSP primary screen and secondary assay, D1; assay type: binding; details: 10 µM compound
T3 construct: Psychoactive Drug Screening Program (PDSP)
Source text: as §4, §5

[6] = antagonist mode, EC80 dopamine (1 μM), normalized to spiperone
[7] = brain, 5 mg/kg, brain, read-out: half-life (h) brain (converted)
[8] = plasma and brain, 5 mg/kg, tissue not specified, read-out: half-life (converted)
[9] = plasma, 5 mg/kg, plasma, read-out: half-life (h) plasma (converted)
[10] = brain, read-out: Tmax (h) brain
[11] = plasma, read-out: Tmax (h) plasma

human D2R long isoform, sequence (P14416 whole entry, canonical isoform): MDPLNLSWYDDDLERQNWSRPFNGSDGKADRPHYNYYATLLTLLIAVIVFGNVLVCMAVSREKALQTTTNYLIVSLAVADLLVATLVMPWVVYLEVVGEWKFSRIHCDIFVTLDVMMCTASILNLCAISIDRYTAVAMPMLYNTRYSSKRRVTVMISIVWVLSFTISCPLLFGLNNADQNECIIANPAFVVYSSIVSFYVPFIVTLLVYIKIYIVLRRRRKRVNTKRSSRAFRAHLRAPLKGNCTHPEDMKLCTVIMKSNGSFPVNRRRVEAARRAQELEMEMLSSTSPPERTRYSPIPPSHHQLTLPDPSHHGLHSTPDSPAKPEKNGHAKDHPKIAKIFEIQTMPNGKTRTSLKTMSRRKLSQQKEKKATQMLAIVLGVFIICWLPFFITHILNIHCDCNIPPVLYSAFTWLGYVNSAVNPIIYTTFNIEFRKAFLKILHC
human D3R, sequence (P35462 whole entry): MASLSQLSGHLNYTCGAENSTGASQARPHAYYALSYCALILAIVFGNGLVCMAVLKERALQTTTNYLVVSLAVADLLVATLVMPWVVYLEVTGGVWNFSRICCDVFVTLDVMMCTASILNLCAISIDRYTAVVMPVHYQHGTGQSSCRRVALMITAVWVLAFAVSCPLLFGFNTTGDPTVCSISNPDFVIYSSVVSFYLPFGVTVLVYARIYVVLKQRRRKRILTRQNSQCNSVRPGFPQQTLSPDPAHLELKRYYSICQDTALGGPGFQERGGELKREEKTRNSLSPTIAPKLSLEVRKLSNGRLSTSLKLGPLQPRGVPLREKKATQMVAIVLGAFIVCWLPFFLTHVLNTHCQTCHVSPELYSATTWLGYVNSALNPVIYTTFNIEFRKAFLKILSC
T3 sequence (P21728 whole entry): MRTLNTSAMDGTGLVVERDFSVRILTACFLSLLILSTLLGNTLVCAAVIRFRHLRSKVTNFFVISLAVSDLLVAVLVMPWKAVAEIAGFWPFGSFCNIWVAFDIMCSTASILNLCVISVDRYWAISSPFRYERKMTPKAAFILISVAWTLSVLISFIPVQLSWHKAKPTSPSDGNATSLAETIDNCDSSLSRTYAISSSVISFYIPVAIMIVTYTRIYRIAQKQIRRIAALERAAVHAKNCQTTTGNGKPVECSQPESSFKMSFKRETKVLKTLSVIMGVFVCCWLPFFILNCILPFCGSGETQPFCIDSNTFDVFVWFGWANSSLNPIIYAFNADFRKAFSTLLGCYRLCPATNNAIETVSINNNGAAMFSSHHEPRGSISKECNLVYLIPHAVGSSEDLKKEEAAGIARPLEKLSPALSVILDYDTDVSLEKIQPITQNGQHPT
T2 sequence (P21918 whole entry): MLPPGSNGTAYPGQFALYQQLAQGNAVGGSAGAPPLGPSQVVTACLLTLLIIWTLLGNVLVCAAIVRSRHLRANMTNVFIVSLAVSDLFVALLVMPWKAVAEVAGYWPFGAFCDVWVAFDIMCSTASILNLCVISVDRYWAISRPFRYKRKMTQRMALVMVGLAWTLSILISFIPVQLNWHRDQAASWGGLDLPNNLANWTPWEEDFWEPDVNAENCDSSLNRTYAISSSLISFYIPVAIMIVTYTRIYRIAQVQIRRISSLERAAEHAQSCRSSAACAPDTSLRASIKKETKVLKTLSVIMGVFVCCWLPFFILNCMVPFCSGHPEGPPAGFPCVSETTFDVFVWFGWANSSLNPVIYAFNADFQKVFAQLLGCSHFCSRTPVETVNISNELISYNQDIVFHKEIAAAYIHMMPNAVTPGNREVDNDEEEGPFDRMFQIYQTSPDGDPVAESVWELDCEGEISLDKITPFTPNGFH

SMILES | EC50 (human D2R long isoform) [µM] | IC50 (human D2R long isoform) [µM] | D2R Ant (%) (human D2R long isoform; [6]) | Emax (human D2R long isoform) [%] | EC50 (human D3R) [µM] | IC50 (human D3R) [µM] | D3R Ant. (%) (human D3R) | Emax (human D3R) [%] | half-life [1] [min] | half-life [2] [min] | EC50 (human D4R [3]) [µM] | IC50 (human D4R [3]) [µM] | D4R average activity at the highest tested dose (human D4R [3]; agonist mode) | D4R Ant. (%) (human D4R [3]) | EC50 (human D4R [4]) [µM] | IC50 (human D4R [4]) [µM] | D4R Ant. (%) (human D4R [4]) | Emax (human D4R [4]) [%] | inhibition at 10 µM (D5) [%] | Kp ([5]; 5 mg/kg) | other results
Cc1cccc(-n2cc(CN3CCN(c4ncccn4)CC3)nn2)c1 [Compound 16, 2-(4-((1-(m-Tolyl)-1H-1,2,3-triazol-4-yl)methyl)-piperazin-1-yl)pyrimidine] | 6.87 ± 2.5 | 19 | 73.2 ± 4.6 | 25.3 ± 4.9 | > 100 | > 10 | 105 ± 4 | 75 ± 14 | 40.1 ± 1.91 | 68.1 ± 9.51 | > 100 | 0.14 ± 0.035 | ND (14% at 100 μM) | 85.2 ± 2.4 | 0.00768 ± 0.00188 | 0.0679 ± 0.0113 | 45 ± 3 | 39 ± 7 |  |  | D4R Emax (%) (human D4R [3]; agonist mode, in comparison to dopamine): did not show partial agonist activity
CCc1cccc(-n2cc(CN3CCN(c4ccccn4)CC3)nn2)c1 [Compound 19, 1-((1-(3-Ethylphenyl)-1H-1,2,3-triazol-4-yl)methyl)-4-(pyridin-2-yl)piperazine] |  |  |  |  |  |  |  |  | 37.5 ± 0.68 | 28 ± 0.56 |  |  |  |  |  |  |  |  |  |  | 
Cc1cccc(-n2cc(CN3CCN(c4ccccn4)CC3)nn2)c1 [Compound 15, 1-(Pyridin-2-yl)-4-((1-(m-tolyl)-1H-1,2,3-triazol-4-yl)-methyl)-piperazine] | > 100 | 9.05 ± 2.5 | 87.7 ± 2.6 | 16.5 ± 9.8 | 3.6 ± 0.48 |  |  | 110 ± 29 | 61.4 ± 7.27 | 32.9 ± 1.16 | > 100 | 0.31 ± 0.049 | ND (14% at 100 μM) | 82.8 ± 3.3 | 0.00529 ± 0.00139 | 0.0576 ± 0.00544 | 40 ± 1 | 43 ± 6 | 1.76 | 0.72 | half-life [5, 7]: 1.02 h; half-life [5, 8]: > 1.1 h; half-life [5, 9]: 1.09 h; Tmax [5, 10]: 0.25 h; AUC ([5]; plasma): 2.65 ± 0.46 µM·h; Cmax ([5]; plasma): 3.28 ± 1.26 µM; Tmax [5, 11]: 0.25 h; AUC brain ([5]; brain): 1.91 ± 0.31 nmol·h/g; Cmax brain ([5]; brain): 1.83 ± 0.68 nmol/g; peak in vivo brain concentrations expected [5]: greater than 1.8 μM; inhibition at 10 µM (D1): 2.16%
O=C(CCCN1CCC2(CC1)C(=O)NCN2c1ccccc1)c1ccc(F)cc1 [Spiperone, reference compound] |  |  |  |  |  |  |  |  |  |  |  |  |  | 100 ± 0 |  |  | 100 ± 0 |  |  |  | D2R Ant (%) (human D2R long isoform): 100 ± 0%
Cc1cccc(-n2cc(CN3CCC(c4ccccc4)CC3)nn2)c1 [Compound 14, 4-Phenyl-1-((1-(m-tolyl)-1H-1,2,3-triazol-4-yl)methyl)-piperidine] |  | 6.09 ± 1.34 | 112 ± 3 |  |  | 6.3 ± 2.1 | 81.6 ±0.3 |  | 63.3 ± 2.98 | 13.4 ± 0.44 | > 100 |  | ND (12% at 100 μM) | 93.3 ± 5.9 | 0.0445 ± 0.0174 | 0.0846 ± 0.0156 | 63 ± 2 | 30 ± 5 | 16 | 0.76 | half-life [5, 7]: 0.4 h; half-life [5, 8]: ≤ 0.4 h; half-life [5, 9]: 0.37 h; Tmax [5, 10]: 0.25 h; AUC ([5]; plasma): 1.56 ± 0.2 µM·h; Cmax ([5]; plasma): 2.89 ± 0.57 µM; Tmax [5, 11]: 0.25 h; AUC brain ([5]; brain): 1.19 ± 0.10 nmol·h/g; Cmax brain ([5]; brain, 5 mg/kg): 2.16 ± 0.21 nmol/g; peak in vivo brain concentrations expected [5]: greater than 2.8 μM; inhibition at 10 µM (D1): 20.2%
